Data on 27 compounds can be found in PubChem BioAssay (NCI).

Assay in all cases: NCI tumour cell line growth inhibition, 48 h
In test [1] the test system is U251 CNS.
For test [2], the system named is ACHN renal.
Test [3] concerns UACC-62 melanoma.
The subject of test [4] is UO-31 renal.
The test system of test [5] is OVCAR-8 ovarian.
Test [6] has as its system UACC-257 melanoma.
Test [7] concerns HL-60(TB) leukemia.
Test [8] deals with K-562 leukemia.
Test [9] has as its system NCI/ADR-RES ovarian.
Test [10] has as its system NCI-H226 lung.

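Test compounds were applied to cells in 96-well plates for 48 hours at 5 doses. TGI is the concentration that stops growth completely.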

Consider `CC(=O)O[C@H]1CC[C@@]2(C)C(=CC[C@@H]3[C@@H]2CC[C@]2(C)c4nc(Cl)ccc4C[C@@H]32)C1`, for which the TGI in [1] was > 100 µM; in test [2], > 100 µM; in test [3], 54.3 µM; in test [4], > 100 µM; in test [5] it was > 100 µM; in [6], > 100 µM. Also, the TGI in [7], in test [8], in test [9] and in test [10] was > 100 µM throughout.

On to `CSc1c(C#N)c(N)n(-c2ccc(Cl)cc2)c(=O)c1C#N`, for which the TGI in [1], in test [3], in test [4], in test [5], in test [6] and in test [7] was > 100 µM each time. For the same compound, the TGI in test [8], in [9] and in [10] was > 100 µM throughout.

As to `Nc1nc2c(C(=O)O)c3ccc([N+](=O)[O-])cc3c(=O)n2c2ccccc12`, the TGI was 92.9 µM in [1]; > 100 µM in [2]; > 100 µM in test [3]; > 100 µM in test [4]; 34.8 µM in test [5]; > 100 µM in test [7]. The figures for the TGI in test [8], in test [9] and in test [10] were > 100 µM, 52.4 µM and 53.9 µM, respectively.

Regarding `CC(C)/C(Cl)=N/OC(=O)Nc1ccc(Cl)c(Cl)c1`, the TGI in [1] was determined as 43.8 µM; in test [2] it was 3.72 µM; in [3], 26.5 µM; in test [4], 28.6 µM; in [5], 32.9 µM; in test [6], 27.9 µM. The results for the TGI in test [7], in test [9] and in [10] were 6.21 µM, 32 µM and 32.2 µM, respectively.

Consider `CCOC(=O)C1CCCCN1C(=O)Cc1c[nH]c2ccccc12` (centres undefined), for which the TGI in [1] is > 100 µM; in test [2] it was > 100 µM; in test [3] it was > 100 µM; in test [5], > 100 µM; in [6], > 100 µM; in [7], 58.6 µM. Besides, the TGI in test [8], in test [9] and in [10] was > 100 µM throughout.

Take `Nc1ncnc2c1ncn2[C@@H]1O[C@H](COC(c2ccccc2)(c2ccccc2)c2ccccc2)[C@@H](OC(=S)Oc2ccccc2)[C@@H]1F`: the TGI in test [1] worked out at 21.8 µM; in test [2], 22.6 µM; in test [3], 29.7 µM; in [4] it was 13.2 µM; in test [5] it was 11.9 µM; in [6] it was 28.6 µM. Further, the TGI in test [7] was 13.3 µM; in test [8], > 100 µM; in [9] it was 18.5 µM; in [10] it was 31.8 µM.

For the compound `CN=C(Nc1cccc(C(F)(F)F)c1)SCc1ccc(N=C=S)cc1`, the TGI in test [1] amounted to 29.8 µM; in [2], 28.7 µM; in [3], 24.6 µM; in test [4] it was 28.4 µM; in [5] it was 40.7 µM; in test [6], 27.3 µM. The TGI is > 100 µM in test [7], > 100 µM in [8], 61.3 µM in test [9] and 45 µM in test [10].

Regarding `COc1cc(CNc2nc3ccccc3nc2C(=O)O)cc(OC)c1OC`, the TGI in test [1], in test [2], in [3], in [4], in [5] and in test [6] was > 100 µM throughout. For the same compound, the TGI in test [7], in test [8], in [9] and in test [10] was > 100 µM in each case.

For the compound `CN1CCN(P2(=S)Oc3ccc4ccccc4c3-c3c(ccc4ccccc34)O2)CC1`, the TGI was > 100 µM in test [1]; > 100 µM in test [3]; 48 µM in test [4]; > 100 µM in test [5]; > 91.4 µM in [6]; 39.9 µM in [7]. Besides, the TGI is > 76.9 µM in [8], > 71 µM in test [9] and > 92.3 µM in test [10].

As for `CC[C@@]1(O)C(=O)OCc2c1cc1n(c2=O)Cc2c-1nc1ccccc1c2/C=N\NC(=O)C(N)CCSC` (some centres undefined), the TGI in test [1] is 1.17 µM; in [2], < 0.0506 µM; in [3] it was < 0.043 µM; in [4], 0.277 µM; in test [5] it was 4.36 µM; in [6] it was 2.45 µM. The TGI in [7] was 2.66 µM; in [8] it was > 100 µM; in test [9], 23.9 µM; in test [10], 1.11 µM.

In the case of `Cn1c(=O)n2n(c1=O)C(C)(C13CC4CC(CC(C4)C1)C3)C13CC4CC(CC1C4)CC23` (centres undefined), the TGI in test [1], in test [2], in test [3], in test [4], in test [5] and in test [6] was > 100 µM each time. The TGI in test [7], in test [8], in [9] and in [10] was > 100 µM in each case.

For `c1ccc(CC2COC(c3cccs3)=N2)cc1` (centres undefined), the TGI in [1], in [2], in [3], in test [4], in test [5] and in test [6] was > 100 µM in each case. In addition, the TGI in test [7], in test [8], in test [9] and in [10] was > 100 µM in each case.

For the compound `CCN(CC)c1nnc(CCCCCCCCc2nnc(N(CC)CC)o2)o1`, the TGI in [1], in test [2], in [4], in [5], in test [6] and in [7] was > 100 µM throughout. Besides, the TGI in [8], in test [9] and in test [10] was > 100 µM in each case.

For `C=C1CC[C@@H](C)[C@](C)(CCc2ccoc2)C/C=C\C=C/1C(=O)O`, the TGI in test [1] is > 100 µM; in test [2], > 100 µM; in test [3] it was > 100 µM; in test [4], > 100 µM; in test [5], 48.8 µM; in [6], > 100 µM. In addition, the TGI in test [7] was 57 µM; in test [8], > 100 µM; in [9], > 100 µM; in test [10] it was > 100 µM.

Regarding `Nc1ccc(Nc2cc(=O)[nH]c(=O)[nH]2)cc1Cl`, the TGI in test [1], in test [2], in test [3], in test [4], in [5] and in [6] was > 100 µM each time. For the same compound, the TGI in test [7], in test [8], in test [9] and in test [10] was > 100 µM in each case.

In the case of `O=[N+]([O-])c1ccc(C(O)(C#CCN2CCCC2)c2ccccc2)cc1` (centres undefined), the TGI in [1] is > 100 µM; in test [2] it was > 100 µM; in test [3], 87.4 µM; in test [4], > 100 µM; in [5], > 100 µM; in test [6], 58.7 µM. Also, the TGI in test [7] is 36.5 µM; in test [8], 42.6 µM; in [9] it was > 100 µM; in test [10], > 100 µM.

Take `CN(C)CCc1c2c(nc3ccccc13)C(=O)c1cccnc1C2=O`: the TGI is 4.3 µM in [1]; 1.39 µM in [2]; 0.738 µM in test [3]; 1.88 µM in test [4]; 1.66 µM in test [5]; 1.03 µM in [6]. The TGI was 0.365 µM in [7], > 29.1 µM in test [8], 1.03 µM in test [9] and 0.473 µM in test [10].

In the case of `Clc1ccc2oc(CCc3ccccc3)nc2c1`, the TGI in test [1], in test [2], in test [3], in test [4], in [5] and in test [6] was > 100 µM in each case. For the same compound, the TGI in test [7], in [8], in test [9] and in [10] was > 100 µM in each case.

`CC(C)(CCC(C)(C)N1OC1c1ccccc1)N1OC1c1ccccc1` (centres undefined): the TGI in test [1] is > 100 µM; in [2], 35.8 µM; in test [3] it was > 100 µM; in test [4], 62.7 µM; in test [5], > 100 µM; in [6], > 100 µM. Moreover, the TGI was 44.3 µM in test [7], 37.7 µM in test [8], > 100 µM in [9] and > 100 µM in [10].

For `CN(CCCNC(=O)c1cc(-c2ccccc2)nc2ccccc12)CCCNC(=O)c1cc(-c2ccccc2)nc2ccccc12`, the TGI was determined as 4.05 µM in test [1]; 7.25 µM in test [2]; 4.31 µM in test [3]; 6.52 µM in test [4]; 5.65 µM in test [5]; 3.34 µM in test [6]. Besides, the TGI came out at 4.7 µM in test [7], 4.69 µM in test [8], 11.1 µM in test [9] and 10.7 µM in [10].

`CCN(CCN(CC)C(=O)Nc1ccccc1)C(=O)Nc1ccccc1`: the TGI in test [1], in test [2], in test [3], in [4], in [5] and in test [6] was > 100 µM each time. Further, the TGI in [7], in test [8], in test [9] and in [10] was > 100 µM each time.

For `CCOC(=O)c1c[nH]c2ccc3c(c2c1=O)S(=O)(=O)CC3` (tested in a mixture with another compound), the TGI in [1], in test [3], in test [4], in [5], in test [6] and in test [7] was > 100 µM in each case. The TGI in test [8], in test [9] and in test [10] was > 100 µM in each case.

Take `CCc1ccc2c(c1)N(CC(C)CN(C)C)c1ccccc1S2` (centres undefined): the TGI in [1] was determined as 17.4 µM; in [2] it was 15.5 µM; in test [3] it was 13.1 µM; in [4] it was 10.3 µM; in [5], 21.8 µM; in [6] it was 7.19 µM. Moreover, the TGI in test [7] is 8.66 µM; in [8], 3.5 µM; in test [9], 17.8 µM; in test [10] it was 25.5 µM.

For `C=C(C)[C@@H]1CC[C@]2(C(=O)OC)CC[C@]3(C)[C@H](CC[C@@H]4[C@@]5(C)CC[C@H](O)C(C)(C)[C@@H]5CC[C@]43C)[C@@H]12`, the TGI is 35.8 µM in test [1]; 32.9 µM in test [2]; 49.1 µM in [4]; 51.2 µM in test [5]; 38.3 µM in test [6]; > 100 µM in test [7]. In addition, the results for the TGI in test [8], in test [9] and in test [10] were 47 µM, 51.7 µM and 44.4 µM, respectively.

For `O=C1N[C@@H]2C(=C[C@H](O)[C@@H](O)[C@H]2O)c2cc3c(c(O)c21)OCO3`, the TGI was 0.394 µM in [1]; 0.0587 µM in test [3]; 0.0955 µM in test [4]; 0.0613 µM in test [5]; 0.088 µM in [6]; 0.0862 µM in test [7]. In addition, the values for the TGI in test [8], in [9] and in test [10] were 0.0955 µM, 0.0972 µM and 0.0876 µM, respectively.

For the compound `CO/N=C1/c2sccc2[C@H](NC(=O)C(Cc2ccccc2)NC(=O)OC(C)(C)C)[C@@H]1O` (some centres undefined), the TGI in test [1], in test [3], in [4], in test [5], in [6] and in [7] was > 100 µM throughout. In addition, the TGI in test [8], in [9] and in test [10] was > 100 µM each time.

In the case of `COc1cccc(/N=N/C(=NNC(=O)c2ccc(C)cc2)c2ccc(N(C)C)cc2)c1`, the TGI in test [1], in test [2], in test [4], in test [5], in test [6] and in test [7] was > 100 µM each time. Besides, the TGI in test [8], in test [9] and in [10] was > 100 µM in each case.
